# Patent EP0366632A1, “Alternative energy substrates” (priority 1988, dated 1990)
# “And” between values parts separate entries of the source, which are not always exact repeats. Equal values may be shown once.
# What was measured:
# [1] = Cold storage of fat emulsion (Intralipid) with ester admixture: visual inspection, pH, mean particle size; assay type: physicochemical; settings: for Mean particle size, X / pH / Mean particle size (single readings, Coulter nanosizer): Example 32: Intralipid 20%; for pH: after 5 day storage; for Mean particle size (single readings, Coulter nanosizer): listed as 5-methyl-3-oxo-pentanoic acid ethyl ester; for emulsion quality, daily visual inspection: Example 32: mother concentrate in Intralipid 20%; for emulsion quality, daily visual inspection / emulsion stability, daily visual inspection: +5°C, 5 days
# Experimental: A so-called mother concentrate was prepared by dissolving 6 g of egg-yolk phospholipids in 40 g of 4-methyl-3-oxo-pentanoic acid ethyl ester at +60°C, while stirring. 34 g of 99% ethyl alcohol were then added to the solution, whereafter the solution was cooled to room temperature and dispensed into 20 ml glass flasks. Nitrogen gas was then bubbled through the liquid and the flasks then stoppered and capsuled. The bottles were then autoclaved at +120°C and at 118 kPa for 20 minutes. A 10% fat emulsion for parenteral nutrient administration (Intralipid^R retailed by KabiVitrum AB, Stockholm) was added to the preparation under strict asceptic conditions, to a 4-methyl-3-oxo-pentanoic acid ethyl ester concentration of 0.2, 1 and 3% respectively. The emulsion was shaken for 5 minutes in a shaking machine and then placed in a cold environment (+5°C). The emulsion was thereafter observed over a 5 day period, wherewith a daily inspection was carried out to assess the formation of oil droplets, creaming or oil separation. The assessment was made in comparison with a known emulsion for parenteral use (Intralipid^R 10%). […] Subsequent to 5 days storage, an analysis was made of the pH and mean particle size in a Coulter nanosizer. The following values were obtained:
# (§1) A so-called mother concentrate produced by dissolving 6 g egg-yolk phospholipids in 40 g of 4-methyl-3-oxo-pentanoic acid-ethyl ester at +60°C, while stirring the system. 34 g of 99% ethyl alcohol were then added to the solution, whereafter the solution was cooled to room temperature and dispensed into 20 ml glass flasks. Nitrogen gas was perculated through the contents of the flasks, and the flasks subsequently stoppered and fitted with capsules. The flasks were then autoclaved at 120°C and 118 kPa over a period of 20 minutes. This preparation was added to a 20% fat emulsion (Intralipid^R) under strict aseptic conditions, such that the concentation of 4-methyl-3-oxo-pentanoic acid ethyl ester was 0.2 and 1 and 3% respectively. The emulsion was shaken for 5 minutes in a shaker and then placed in a cold environment (5°C). The emulsion was inspected over a period of 5 calender days, wherewith a visual inspection was carried out daily in order to ascertain the occurrence of any oil droplets that may form, creaming or oil separation. The assay was effected by comparison with a known emulsion for parenteral use (Intralipid^R 20%). […] The pH of the emulsion was measured after a 5 day storage period. The mean particle size was measured in a Coulter^R nanosizer. The following values were obtained:
# as §1, with “prepara tion” for “preparation”, “10%” for “20%”, “10%).” for “20%).”, “obtained: […]” for “obtained:”
# [2] = tested on: Escherichia coli ATCC 8739; assay: Microorganism count in ester emulsions diluted with phosphate buffer, albumin solution or TSB (Example 16); assay type: cell-based
# Experimental: The emulsions contained egg-yolk phospholipid 1,2% and sterile water in addition to ester. The emulsions were prepared aseptically, by emulsifying sterile-filtered ester with a sterilized dispersion of egg-yolk phospholipids.
# Aliquots of these emulsions were diluted at a ratio of 1 to 10 with phosphate buffer (0.01 M, pH=7.0), seruma albumin solution 20% and Tryptone soya broth (TSB) respectively. Escherichia coli ATCC 8739 were added to the emulsions. The emulsions were then incubated for 20 hours at +37°C. The microorganism count was carried out after 1-5 minutes, 2 hours and 20 hours, in the manner described in microbiological literature. Parallel with the above tests, there was made a control of phosphate buffer and TSB with additions of Escherichia coli ATCC 8739. The latter substrate was tested to ascertain whether or not the microorganisms were viable. […] The starting concentration was about 10⁴. In the samples containing 4-methyl-3-oxo-pentanoic acid ethyl ester, the combination with phosphate buffer was 0 after 5 minutes, 0 after 2 hours and 0 after 20 hours. In the combination with 20% albumin solution, the microorganism count was 0 after 5 minutes, no count was taken after 2 hours, and 0 after 20 hours. […], the count in the combination with TSB was 0, no count was taken after 2 hours, and 0 after 20 hours.
# In the samples containing 5-methyl-3-oxo-hexanoic acid ethyl ester, the count in the combination with phosphate buffer was 10 after 5 minutes, 0 after 2 hours, and 0 after 20 hours. The combination with 20% albumin solution was 10² after 5 minutes, no count was taken after 2 hours, and 0 after 20 hours. In the combination with TSB, the count was 10 after 5 minutes, no count was taken after 2 hours, and 0 after 20 hours. […] All microorganisms were eliminated within 20 hours by both esters at the same low concentration.
# [3] = Total parenteral nutrition (TPN) with ester as energy substitute in rats; settings: 9 days
# Experimental: Sprague-Dawley male rats weighing 180-190 g were sur­gically fitted with a central vein catheter protected by a saddle (Roos et al, 1981). Total parenteral nutrition (TPN) was administered in accordance with the following standard formula: Fat: 8 g/kg body weight and 24 hours Nitrogen: 1,2 g/kg body weight and 24 hours Total energy supplied: 1257 kJ/kg body weight and 24 hours Liquid: 300 ml/kg body weight and 24 hours The glucose to fat ratio was 70-30 energy percent. The energy percentage obtained from the energy substitutes during the test period corresponded to about 5% NPC. The TPN-mixture was obtained by mixing Vamin^R 14 (a solution of essential and non-essential amino acids for paren­teral nutrient administration, retailed by KabiVitrum AB) with no electrolytes, glucose solution 50% and Intralipid^R 20% in suitable proportions and adding adequate quantities of electrolytes, trace minerals and vitamins. Subsequent to infusing the rats continuously for one week (20 hours/day), the animals were divided randomly into three groups, with 6 animals in each group. The animals of one group were administered with the same TPN-formula as that previously mentioned (the reference group). […] The compounds were given in a dosage of 2 g/kg body weight and 24 hours in a yield corres­ponding to equivalent glucose energy quantities. In other respects, the TPN-program or formula was the same as that for the reference group. The experiment was then continued for a further 9 days, during which the weights of the animals were recorded daily and urine collected and frozen. At the end of the test period, the rats were killed by heart puncture while under a pentobarbital anesthetic and an autopsy was performed on the rat carcasses with microscopic examination. The body organs were sent to a laboratory for pathological assay.
compound,measurement,setting,value
CCOC(=O)CC(=O)CC(C)C [5-methyl-3-oxo-hexanoic acid ethyl ester],"Mean particle size, X",[1]; 0.2% admix,322
same,pH,[1]; 0.2% admix,7.4
same,"Mean particle size (single readings, Coulter nanosizer)",[1]; 0.2% admix,317 and 321 and 324
same,"Mean particle size, X",[1]; 1% admix,319
same,pH,[1]; 1% admix,7.0
same,"Mean particle size (single readings, Coulter nanosizer)",[1]; 1% admix,317 and 324 and 321
same,"Mean particle size, X",[1]; 3% admix,324
same,pH,[1]; 3% admix,6.7
same,"Mean particle size (single readings, Coulter nanosizer)",[1]; 3% admix,324 and 328 and 321
same,"emulsion quality, daily visual inspection",[1]; 0.2% addition,No change in quality
same,"emulsion quality, daily visual inspection",[1]; 1% addition,No change in quality
same,"emulsion quality, daily visual inspection",[1]; 3-percent mixture,fully acceptable over the first 4 days
same,"emulsion stability, daily visual inspection","[1]; Example 33: pure ester in 10% fat emulsion (Intralipid), 0.2%",stable over the whole of the test period
same,"emulsion stability, daily visual inspection","[1]; Example 33: pure ester in 10% fat emulsion, 1%",stable over the whole of the test period
same,"emulsion stability, daily visual inspection","[1]; Example 33: pure ester in 10% fat emulsion, 3%",stable over the whole of the test period
same,"emulsion stability, daily visual inspection","[1]; Example 33: pure ester in 10% fat emulsion, 5%",stable over the first 2 days
same,"emulsion stability, daily visual inspection","[1]; Example 33: pure ester in 20 percent emulsion, 0.2%",remained stable over the whole of the test period
same,"emulsion stability, daily visual inspection","[1]; Example 33: pure ester in 20 percent emulsion, 1%",remained stable over the whole of the test period
same,"emulsion stability, daily visual inspection","[1]; Example 33: pure ester in 20 percent emulsion, 3%",remained stable for 1 day
same,microorganism count,"[2]; 20% emulsion diluted 1 to 10 with phosphate buffer, after 5 minutes, starting concentration about 10⁴",10
same,microorganism count,"[2]; diluted 1 to 10 with 20% albumin solution, after 20 hours",0
same,microorganism count,"[2]; diluted 1 to 10 with TSB, after 5 minutes",10
same,microorganism count,"[2]; diluted 1 to 10 with TSB, after 20 hours",0
same,microorganism count,"[2]; diluted 1 to 10 with phosphate buffer, after 2 hours",0
same,microorganism count,"[2]; diluted 1 to 10 with phosphate buffer, after 20 hours",0
same,toxicity at the dosages tested,[3]; 2 g/kg body weight and 24 hours,non-toxic
same,average growth per day during the whole of the test period,[3]; ester 2 g/kg body weight and 24 hours in place of equivalent glucose energy,2.8 ± 0.2 g
